# Data taken from PMC12627862, “Therapeutic targeting of endothelial calcium signaling accelerates the resolution of lung injury” (Signal Transduction and Targeted Therapy, 2025).
# Read-outs that look alike come from different tables or passages of the source. Starred links: 1 amine or outer side, 2 acyl side, 3 side chain; linkers in the order of their positions; H or OH if unused. Positions of bridges follow the written chain, without caps; N, C: chain ends. Non-standard residues stand in square brackets, D forms with d. Residues, ends and D or L forms follow the SMILES beside them. ξ: configuration not given here. X2 = C[C@@](CCCCC=[*:3])(N[*:1])C(=O)[*:2]; Oic = O=C(O)[C@@H]1C[C@@H]2CCCC[C@@H]2N1; GABOB(3R) = O=C(C[C@@H](O)CN[*:1])[*:2]; d(tBuAla) = CC(C)(C)C[C@@H](N)C(=O)O; dVal(3-OH) = CC(C)(O)[C@@H](N)C(=O)O; tBuAla = CC(C)(C)C[C@H](N)C(=O)O; ξVal(3-OH) = CC(C)(O)C(N)C(=O)O; R5 = C=CCCC[C@@](C)(N)C(=O)O; X1 = O=C(CC(O)CN[*:1])[*:2]; 4Amb = NCc1ccc(C(=O)O)cc1
# Key:
# [1] = system: human primary microvascular lung endothelial cells (HLMVECs); experiment: Peptide uptake in endothelial cells; type: cell-based
# Description: We next analyzed the cell-penetrating properties of the selected compounds, hereafter referred to as vascular therapeutics (VT). The rate of uptake of 5’6-FAM (fluorescein)-labeled compounds by human primary microvascular lung endothelial cells (HLMVECs) was determined via confocal fluorescence live-cell imaging. FAM-labeled Myr-EBIN[13] and fluorescein alone were used as positive and negative controls, respectively. The t½ uptake and maximal uptake were determined from changes in the integrated fluorescence intensity over a 30 min period (Fig. 2a and Supplementary Fig. 1a). […] Like Myr-EBIN, compounds VT-107, -108 and -109 presented the highest uptake rates of 92.5 ± 5.0%, 82.5 ± 2.8% and 94.7 ± 4.9%, respectively, whereas the linear compound VT-101 was taken up less efficiently, with an average uptake of 58.4 ± 2.7% (Fig. 2a). […] The t½ uptake, however, varied between the tested compounds (Fig. 2b). The stapled compounds presented the shortest t½ uptake, whereas the linear compounds presented the longest t½ (Fig. 2b).
# Peptide uptake in endothelial cells. The rate of peptide uptake by primary human microvascular endothelial cells was measured using 5’6FAM (fluorescein)-labeled peptides and confocal fluorescence live-cell imaging, with fluorescein alone used as a negative control. Changes in intracellular fluorescence for each peptide were monitored over time, and saponin, a detergent, was added at the end of the experiment to induce full uptake of the tested peptides by endothelial cells. The fluorescence intensity inside the cells was tracked over time, and the half-time uptake (t1/2) and maximum uptake were calculated.
# [2] = Stability at various storage conditions; type: physicochemical; conditions: for amount of peptide remaining after storage: phosphate-buffered sterile saline, 8 days, LC-MS/MS
# Description: Stability assay of peptides in various storage conditions. Peptides were dissolved and stored in phosphate-buffered sterile saline at -20, 4, 37, and 60°C for 8 days. The amount of peptide remaining after the study was analyzed by LC-MS/MS.
# Supplementary Table 5. Stability of selected compounds at various storage conditions. Preliminary accelerated storage stability at various temperature conditions for the selected inhibitors was tested in phosphate-buffered sterile saline at -20 °C, 4 °C, 37 °C and 60 °C for 8 days. See also Figures 1 and 2.
# [3] = Lipophilicity of peptides, logP(oct/wat); type: physicochemical
# How it was run: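 Shake-flask partition between n-octanol and phosphate buffer, each phase pre-saturated with the other; peptides dissolved in buffer, partitioned at several octanol:water ratios, shaken 1 h at room temperature. After equilibration both phases assayed for peptide; logP = log(octanol/water concentration ratio).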
# [4] = system: mice challenged with a PAR-1 agonist peptide; experiment: PAR-1 agonist peptide-induced microvascular leakage in lung; type: in vivo, mouse; conditions: i.v. 1 µmol/kg bw pretreatment; n = 5–7 mice per group
# Description: The levels of EBA extravasation in the lungs of mice challenged with PAR-1 AP and treated with these compounds were similar to those observed in control mice treated with a control PAR-1 AP ([…]-NH2), in which the positions of the first two amino acids were reversed.
# PAR-1 agonist peptide-induced microvascular leakage in lung. […] Mice treated with PAR-1 control peptide ([…]-NH2) was used as negative control. For Evan’s blue albumin extravasation, Evans’s blue-labeled albumin was administered at the same time as the PAR-1 AP. Vehicle-treated mice were used as treatment control.
# Evans’ blue-labeled albumin extravasation. To evaluate vascular permeability in lung tissues, mice were injected intravenously with Evans' blue-labeled albumin (25 mg/kg) 30 minutes before the collection of lung tissues. The lungs were perfused via the right ventricle with warmed phosphate-buffered saline to remove intravascular dye, and the right atrium was excised to facilitate clearance. […] The optical density of the supernatant was measured spectrophotometrically at 620 nm (Evans Blue) and 740 nm (hemoglobin correction), with the dye content normalized to the wet weight of the lungs. Corrections for hemoglobin were made as follows: Corrected absorbance (Evans blue) = Absorbance (620) - (1.426 × Absorbance (740) + 0.03). […]
# [5] = molecular target: EB3 interactions with IP3R3-GFP (Homo sapiens, UniProt Q9UPY8); experiment: Competitive binding: inhibition of EB3 interaction with IP3R3-GFP in vitro; type: biochemical; conditions: 250 nM
# Text: We tested the efficacy of twenty-three compounds in inhibiting EB3 interactions with IP3R3-GFP via an in vitro approach developed by us[12],[13]. […] Guided by NMR studies, we predicted the binding pose of 109 to EB3 via AutoDock Vina[13],[24],[25].
# [6] = Stability of selected EB3 inhibitors in human blood plasma; type: in vitro ADME
# Description: Supplementary Table 3. Stability of selected EB3 inhibitors in human blood plasma. The indicated inhibitors were incubated with human plasma at 37 °C and samples were taken at the indicated time points. Plasma proteins were precipitated with ice-cold perchloric acid (60%); the concentration of compounds was measured in supernatant using a liquid chromatography-tandem mass spectrometry (LC-MS/MS). See also Figures 1 and 2.
# [7] = Aggregation / solubility at 1 mM; type: physicochemical; conditions: summary calls it solubility at 1mM
# How it was run: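 Solubility and aggregation of compounds were assessed experimentally at 1 mM. Lipophilicity was determined as octanol/water partition coefficient, logP(oct/wat).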
# [8] = system: HLMVECs; experiment: Transendothelial electrical resistance (TEER) assay; type: cell-based, human; conditions: 1 µM, 1 hour pretreatment, 50 nM α-thrombin; to the same extent as EBIN
# EB3 interactions with IP3R3-GFP, sequence (Q9UPY8 whole entry): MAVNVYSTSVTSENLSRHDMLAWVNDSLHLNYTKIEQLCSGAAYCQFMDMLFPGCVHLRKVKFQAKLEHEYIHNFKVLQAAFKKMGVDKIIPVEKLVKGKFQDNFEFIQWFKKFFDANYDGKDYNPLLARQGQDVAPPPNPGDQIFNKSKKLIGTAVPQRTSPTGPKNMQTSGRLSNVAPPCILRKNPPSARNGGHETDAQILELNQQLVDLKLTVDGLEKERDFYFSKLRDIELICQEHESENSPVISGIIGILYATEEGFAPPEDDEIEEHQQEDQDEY
structure (smiles),measurement,setting,value
"CC(C)(C)C[C@@H]1NC(=O)C[C@@H](O)CNC(=O)[C@@H]2C[C@@H]3CCCC[C@@H]3N2C(=O)[C@H](CC(C)(C)C)NC(=O)c2ccc(cc2)CNC(=O)C(C(C)(C)O)NC(=O)[C@@H](Cc2ccccc2)NC1=O (stereo partly drawn) [compound 109, (1^2S,1^3aS,1^7aS,3S,10S,13R,16S,20R)-13-benzyl-20-hydroxy-10-(2-hydroxypropan-2-yl)-3,16-dineopentyl-1^2,1^3,1^3a,1^4,1^5,1^6,1^7,1^7a-octahydro-1^1H-4,8,11,14,17,22-hexaaza-1(1,2)-indola-6(1,4)-benzenacyclotricosaphane-2,5,9,12,15,18,23-heptaone.] (cyclo([4Amb][tBuAla][Oic][GABOB(3R)][tBuAla][dF][ξVal(3-OH)]))",half-time uptake t1/2,[1],3.42 ± 0.01 min
same,penetration of the cell membrane,[1],able to penetrate the cell membrane without the addition of a cell internalization signal
same,storage stability,[2],stable
same,logD,[3],0.73
same,PAR-1-mediated capillary leakage in the lung (EBA extravasation),[4],completely blocked
same,inhibition at 0.25 µM,[5],58%
same,remaining at 1.5 h,"[6]; human, plasma",90%
same,remaining at 20 h,"[6]; human, plasma",91%
same,Aggregation at 1mM,[7],weak signal
same,α-thrombin-induced changes in TEER,[8],attenuated
"CC(C)(C)C[C@@H]1NC(=O)[C@](C)(NC(=O)c2ccc(CNC(=O)[C@H](N)C(C)(C)O)cc2)CCC/C=C\CCCC[C@@](C)(C(=O)N[C@H](CC(C)(C)C)C(=O)O)NC(=O)CC(O)CNC(=O)[C@@H]2C[C@@H]3CCCC[C@@H]3N2C1=O (stereo partly drawn) [compound 108, (2R)-2-((8S,18R,21S,23aS,27aS,28aS,Z)-18-(4-(((R)-2-amino-3-hydroxy-3-methylbutanamido)methyl)benzamido)-4-hydroxy-8,18-dimethyl-21-neopentyl-1,6,19,22-tetraoxo-1,2,3,4,5,6,7,8,9,10,11,12,15,16,17,18,19,20,21,22,23a,24,25,26,27,27a,28,28a-octacosahydro-[1,4,7,12]tetraazacyclotetracosino[4,5-a]indole-8-carboxamido)-4,4-dimethylpentanoic acid] (H-[dVal(3-OH)][4Amb][R5][tBuAla][Oic][X1][X2][d(tBuAla)]-OH; staple (Z) 3-7)","uptake, percentage of the maximal values obtained following saponin treatment","[1]; 5’6-FAM-labeled compounds, HLMVECs, confocal live-cell imaging over 30 min, mean ± SEM, n = 16–45 cells per group",82.5 ± 2.8%
same,half-time uptake t1/2,"[1]; 5’6-FAM-labeled compounds, HLMVECs, confocal live-cell imaging, n = 3 independent experiments",0.36 ± 0.12 min
same,penetration of the cell membrane,"[1]; 5’6-FAM-labeled compounds, HLMVECs, no cell internalization signal",able to penetrate the cell membrane without the addition of a cell internalization signal
same,amount of peptide remaining after storage,[2]; 4 °C,102%
same,amount of peptide remaining after storage,[2]; 37 °C,104%
same,amount of peptide remaining after storage,[2]; 60 °C,104%
same,amount of peptide remaining after storage,[2]; -20 °C,104%
same,storage stability,[2]; various storage and temperature conditions,stable
same,logD,"[3]; shake-flask n-octanol/phosphate buffer, mutually saturated, shaken 1 hour at room temperature, read-out: Log P (Octanol/Water)",0.46
same,PAR-1-mediated capillary leakage in the lung (EBA extravasation),[4],completely blocked
same,inhibition at 0.25 µM,[5],55%
same,remaining at 1.5 h,"[6]; human plasma, 37 °C, 1.5 hr, perchloric acid (60%) precipitation, LC-MS/MS, read-out: compound remaining in human plasma",80%
same,remaining at 20 h,"[6]; human plasma, 37 °C, 20 hr, perchloric acid (60%) precipitation, LC-MS/MS, read-out: compound remaining in human plasma",65%
same,Aggregation at 1mM,[7],weak signal
same,α-thrombin-induced changes in TEER,[8],attenuated
